According to ChEMBL document CHEMBL3991601, “The target landscape of clinical kinase drugs” (Science, 2017):
Active and inactive are the calls of the source.

How the values were obtained:
[1] = target: Adenylate kinase 2, mitochondrial (Homo sapiens, UniProt P54819)
[2] = target: T1, Aurora kinase A (Homo sapiens, UniProt O14965)
T1 sequence (O14965 whole entry): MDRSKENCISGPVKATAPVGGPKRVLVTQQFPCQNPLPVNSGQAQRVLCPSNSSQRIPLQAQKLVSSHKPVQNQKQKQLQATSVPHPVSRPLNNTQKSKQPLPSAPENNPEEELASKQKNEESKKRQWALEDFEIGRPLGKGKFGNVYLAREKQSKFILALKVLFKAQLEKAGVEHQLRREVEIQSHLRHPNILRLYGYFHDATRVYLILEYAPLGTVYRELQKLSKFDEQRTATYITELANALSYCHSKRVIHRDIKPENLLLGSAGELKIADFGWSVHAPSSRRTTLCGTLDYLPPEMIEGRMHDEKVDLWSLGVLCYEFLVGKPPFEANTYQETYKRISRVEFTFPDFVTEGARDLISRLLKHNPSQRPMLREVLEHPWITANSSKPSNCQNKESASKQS

[3] = target: T2, ATP-dependent RNA helicase DDX42 (Homo sapiens, UniProt Q86XP3)
T2 sequence (Q86XP3 whole entry): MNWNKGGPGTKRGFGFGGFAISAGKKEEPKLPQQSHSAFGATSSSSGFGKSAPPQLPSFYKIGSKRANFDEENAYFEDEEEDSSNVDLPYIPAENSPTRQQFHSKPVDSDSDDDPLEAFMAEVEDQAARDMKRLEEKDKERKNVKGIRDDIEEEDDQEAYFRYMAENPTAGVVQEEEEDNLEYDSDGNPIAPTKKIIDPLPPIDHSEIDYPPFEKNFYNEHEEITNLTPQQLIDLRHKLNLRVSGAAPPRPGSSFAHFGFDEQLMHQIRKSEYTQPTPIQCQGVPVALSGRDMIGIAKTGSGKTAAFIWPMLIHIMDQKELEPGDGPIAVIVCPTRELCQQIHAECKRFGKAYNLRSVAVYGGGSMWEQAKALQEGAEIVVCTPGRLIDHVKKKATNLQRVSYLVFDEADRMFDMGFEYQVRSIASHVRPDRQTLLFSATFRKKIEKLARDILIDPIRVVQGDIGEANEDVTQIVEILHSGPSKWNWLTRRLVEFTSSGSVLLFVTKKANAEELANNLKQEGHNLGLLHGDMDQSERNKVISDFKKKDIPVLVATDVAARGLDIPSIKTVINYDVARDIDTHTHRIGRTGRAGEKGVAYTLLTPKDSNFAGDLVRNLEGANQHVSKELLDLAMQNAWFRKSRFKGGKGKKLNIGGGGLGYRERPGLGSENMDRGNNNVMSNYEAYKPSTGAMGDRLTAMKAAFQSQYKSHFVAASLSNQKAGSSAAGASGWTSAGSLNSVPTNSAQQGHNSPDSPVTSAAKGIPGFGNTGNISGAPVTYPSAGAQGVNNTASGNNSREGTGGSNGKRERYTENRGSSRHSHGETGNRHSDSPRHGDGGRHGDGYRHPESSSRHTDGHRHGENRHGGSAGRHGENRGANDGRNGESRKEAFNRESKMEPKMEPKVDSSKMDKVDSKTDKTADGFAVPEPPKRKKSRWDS

[4] = target: T3, Electron transfer flavoprotein subunit beta (Homo sapiens, UniProt P38117)
T3 sequence (P38117 whole entry): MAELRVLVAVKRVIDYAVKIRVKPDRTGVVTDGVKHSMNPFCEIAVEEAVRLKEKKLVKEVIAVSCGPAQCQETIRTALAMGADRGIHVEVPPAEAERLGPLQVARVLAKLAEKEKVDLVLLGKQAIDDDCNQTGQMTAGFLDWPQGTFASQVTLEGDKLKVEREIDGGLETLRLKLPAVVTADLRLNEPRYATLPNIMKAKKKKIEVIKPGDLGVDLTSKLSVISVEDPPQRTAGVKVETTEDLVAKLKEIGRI

[5] = target: T4, Phenylalanine--tRNA ligase beta subunit (Homo sapiens, UniProt Q9NSD9)
T4 sequence (Q9NSD9 whole entry): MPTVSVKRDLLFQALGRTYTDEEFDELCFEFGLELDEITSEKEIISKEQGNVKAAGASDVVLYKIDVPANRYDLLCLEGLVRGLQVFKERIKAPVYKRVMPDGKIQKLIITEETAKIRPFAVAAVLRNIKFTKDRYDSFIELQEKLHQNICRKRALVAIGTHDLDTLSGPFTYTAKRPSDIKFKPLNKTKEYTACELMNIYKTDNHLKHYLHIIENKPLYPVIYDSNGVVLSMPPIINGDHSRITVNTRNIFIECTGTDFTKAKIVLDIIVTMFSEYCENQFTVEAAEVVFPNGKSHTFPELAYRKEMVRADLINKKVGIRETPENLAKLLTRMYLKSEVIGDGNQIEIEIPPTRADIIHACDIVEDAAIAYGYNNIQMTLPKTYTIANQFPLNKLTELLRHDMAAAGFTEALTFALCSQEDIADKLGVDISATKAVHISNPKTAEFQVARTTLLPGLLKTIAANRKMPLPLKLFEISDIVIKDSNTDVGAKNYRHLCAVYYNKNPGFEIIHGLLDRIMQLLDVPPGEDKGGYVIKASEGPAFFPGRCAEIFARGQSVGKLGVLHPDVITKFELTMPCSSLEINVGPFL

[6] = target: Structural maintenance of chromosomes protein 2 (Homo sapiens, UniProt O95347)
Sequence of Structural maintenance of chromosomes protein 2 (O95347 whole entry): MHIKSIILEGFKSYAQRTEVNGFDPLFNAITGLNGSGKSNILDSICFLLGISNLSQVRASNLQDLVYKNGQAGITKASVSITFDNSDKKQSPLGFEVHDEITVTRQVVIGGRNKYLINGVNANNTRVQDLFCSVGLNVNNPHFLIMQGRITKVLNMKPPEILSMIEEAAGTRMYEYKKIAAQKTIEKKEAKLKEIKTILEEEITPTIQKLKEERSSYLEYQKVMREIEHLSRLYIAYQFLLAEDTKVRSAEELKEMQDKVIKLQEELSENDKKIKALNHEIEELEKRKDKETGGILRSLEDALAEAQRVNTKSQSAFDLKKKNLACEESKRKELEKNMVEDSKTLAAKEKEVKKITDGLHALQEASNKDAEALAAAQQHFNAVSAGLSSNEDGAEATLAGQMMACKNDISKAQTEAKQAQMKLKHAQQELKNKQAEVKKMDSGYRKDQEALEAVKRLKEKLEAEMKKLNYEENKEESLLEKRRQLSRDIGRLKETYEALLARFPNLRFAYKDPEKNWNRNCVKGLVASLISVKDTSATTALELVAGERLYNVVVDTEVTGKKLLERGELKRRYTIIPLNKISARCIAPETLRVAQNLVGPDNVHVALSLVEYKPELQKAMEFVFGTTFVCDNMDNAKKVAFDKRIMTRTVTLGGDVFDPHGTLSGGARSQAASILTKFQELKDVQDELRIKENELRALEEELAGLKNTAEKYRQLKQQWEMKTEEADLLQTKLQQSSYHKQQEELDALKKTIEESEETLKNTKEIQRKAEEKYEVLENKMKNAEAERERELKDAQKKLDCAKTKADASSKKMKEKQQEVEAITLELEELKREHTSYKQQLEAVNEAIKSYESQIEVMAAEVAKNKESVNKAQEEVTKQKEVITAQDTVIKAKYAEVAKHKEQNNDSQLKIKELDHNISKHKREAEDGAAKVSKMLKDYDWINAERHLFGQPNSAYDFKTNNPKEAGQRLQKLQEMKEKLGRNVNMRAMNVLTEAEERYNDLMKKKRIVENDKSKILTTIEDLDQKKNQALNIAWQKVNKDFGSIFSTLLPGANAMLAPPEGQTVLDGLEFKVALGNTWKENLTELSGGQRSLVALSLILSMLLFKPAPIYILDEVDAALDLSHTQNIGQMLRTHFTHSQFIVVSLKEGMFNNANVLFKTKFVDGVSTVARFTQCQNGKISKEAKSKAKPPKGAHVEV

[7] = target: T5, Succinate--CoA ligase [ADP-forming] subunit beta, mitochondrial (Homo sapiens, UniProt Q9P2R7)
T5 sequence (Q9P2R7 whole entry): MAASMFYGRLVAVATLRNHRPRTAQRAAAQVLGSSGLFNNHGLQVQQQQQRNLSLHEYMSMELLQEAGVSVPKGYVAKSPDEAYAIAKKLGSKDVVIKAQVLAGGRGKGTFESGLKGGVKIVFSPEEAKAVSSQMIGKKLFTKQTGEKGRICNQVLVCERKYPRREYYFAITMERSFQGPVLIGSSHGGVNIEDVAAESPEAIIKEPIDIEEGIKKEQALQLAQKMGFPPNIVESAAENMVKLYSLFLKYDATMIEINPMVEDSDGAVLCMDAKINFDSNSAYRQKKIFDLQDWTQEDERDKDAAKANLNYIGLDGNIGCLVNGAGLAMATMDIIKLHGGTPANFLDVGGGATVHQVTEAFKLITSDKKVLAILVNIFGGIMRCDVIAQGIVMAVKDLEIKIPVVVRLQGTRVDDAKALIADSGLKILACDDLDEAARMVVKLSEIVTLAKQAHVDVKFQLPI

[8] = target: Mitogen-activated protein kinase kinase kinase 20 (Homo sapiens, UniProt Q9NYL2)
Sequence of Mitogen-activated protein kinase kinase kinase 20 (Q9NYL2 whole entry): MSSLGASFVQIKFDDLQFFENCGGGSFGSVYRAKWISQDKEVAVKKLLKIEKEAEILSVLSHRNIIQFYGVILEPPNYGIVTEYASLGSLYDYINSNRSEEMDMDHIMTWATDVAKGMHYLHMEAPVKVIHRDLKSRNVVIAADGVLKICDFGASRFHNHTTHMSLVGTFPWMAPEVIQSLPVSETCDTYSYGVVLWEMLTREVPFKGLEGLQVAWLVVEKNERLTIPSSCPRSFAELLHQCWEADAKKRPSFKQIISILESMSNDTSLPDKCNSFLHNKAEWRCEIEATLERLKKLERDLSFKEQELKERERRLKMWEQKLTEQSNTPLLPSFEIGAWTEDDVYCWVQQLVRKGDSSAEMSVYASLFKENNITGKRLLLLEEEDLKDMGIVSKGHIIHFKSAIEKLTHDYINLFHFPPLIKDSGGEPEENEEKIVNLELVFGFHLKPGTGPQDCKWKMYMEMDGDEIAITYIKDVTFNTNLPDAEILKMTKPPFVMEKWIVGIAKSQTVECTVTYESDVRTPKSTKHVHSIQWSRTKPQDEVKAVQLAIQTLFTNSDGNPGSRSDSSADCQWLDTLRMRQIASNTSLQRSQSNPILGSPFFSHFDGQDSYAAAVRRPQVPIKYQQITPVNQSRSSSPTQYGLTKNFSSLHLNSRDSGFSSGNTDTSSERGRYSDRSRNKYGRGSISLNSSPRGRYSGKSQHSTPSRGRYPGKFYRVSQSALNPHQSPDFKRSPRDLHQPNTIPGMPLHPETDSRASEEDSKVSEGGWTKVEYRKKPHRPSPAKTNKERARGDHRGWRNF
Further: in the data inactive means no Kd found up to 30 µM.

| Kd [1] | Kd [2] | Kd [3] | Kd [4] | Kd [5] | Kd [6] | Kd [7] | Kd [8] | Structure (SMILES) |
| --- | --- | --- | --- | --- | --- | --- | --- | --- |
| > 30 µM (inactive) | > 30 µM (inactive) | > 30 µM (inactive) | > 30 µM (inactive) | > 30 µM (inactive) | > 30 µM (inactive) | > 30 µM (inactive) | > 30 µM (inactive) | Cc1ccc(C(=O)Nc2ccc(Oc3cc4cnn(C)c4cc3-c3cn[nH]c3)c(F)c2)c(=O)n1-c1ccc(F)cc1 [MERESTINIB] |
| > 30 µM (inactive) | > 30 µM (inactive) | > 30 µM (inactive) | > 30 µM (inactive) | > 30 µM (inactive) | > 30 µM (inactive) | > 30 µM (inactive) | > 30 µM (inactive) | COc1cccc2cc(-c3nc([C@H]4CC[C@H](C(=O)O)CC4)n4ncnc(N)c34)[nH]c12 [OSI-027] |
| > 30 µM (inactive) | > 30 µM (inactive) | > 30 µM (inactive) | > 30 µM (inactive) | > 30 µM (inactive) | > 30 µM (inactive) | > 30 µM (inactive) | > 30 µM (inactive) | O=C(NC[C@H](O)CO)c1ccncc1Nc1ccc(I)cc1F [PIMASERTIB] |
| > 30 µM (inactive) | > 30 µM (inactive) | > 30 µM (inactive) | > 30 µM (inactive) | > 30 µM (inactive) | > 30 µM (inactive) | > 30 µM (inactive) | > 30 µM (inactive) | C=CC(=O)Nc1cccc(Nc2nc(Nc3ccc(N4CCN(C(C)=O)CC4)cc3OC)ncc2C(F)(F)F)c1 [ROCILETINIB] |
| > 30 µM (inactive) | > 30 µM (inactive) | > 30 µM (inactive) | > 30 µM (inactive) | > 30 µM (inactive) | > 30 µM (inactive) | > 30 µM (inactive) | > 30 µM (inactive) | Cn1c(=O)c(F)c(Nc2ccc(I)cc2F)c2c(=O)n(C[C@@H](O)CO)cnc21 [TAK-733] |
| > 30 µM (inactive) | > 30 µM (inactive) | > 30 µM (inactive) | > 30 µM (inactive) | > 30 µM (inactive) | > 30 µM (inactive) | > 30 µM (inactive) | 0.477 µM | CNC(=O)c1cc(COc2nnc(Nc3ccc(Cl)cc3)c3ccoc23)ccn1 [TELATINIB] |
| > 30 µM (inactive) | > 30 µM (inactive) | > 30 µM (inactive) | > 30 µM (inactive) | > 30 µM (inactive) | > 30 µM (inactive) | > 30 µM (inactive) | > 30 µM (inactive) | CNC(=O)c1cccc(-c2ccc3c(N4CCOC[C@@H]4C)nc(N4CCOC[C@@H]4C)nc3n2)c1 [VISTUSERTIB] |
| > 30 µM (inactive) | > 30 µM (inactive) | > 30 µM (inactive) | > 30 µM (inactive) | > 30 µM (inactive) | > 30 µM (inactive) | > 30 µM (inactive) | > 30 µM (inactive) | NC(=O)c1ccc(N(C(N)=O)c2c(F)cccc2F)nc1-c1ccc(F)cc1F [VX-702] |
| > 30 µM (inactive) | > 30 µM (inactive) | > 30 µM (inactive) | > 30 µM (inactive) | > 30 µM (inactive) | > 30 µM (inactive) | > 30 µM (inactive) | > 30 µM (inactive) | COc1cc2ncnc(Nc3ccc(O)cc3)c2cc1OC [WHI-P131] |

| Structure (SMILES) | Kd [1] | Kd [2] | Kd [3] | Kd [4] | Kd [5] | Kd [6] | Kd [7] | Kd [8] |
| --- | --- | --- | --- | --- | --- | --- | --- | --- |
| C=CC(=O)Nc1cc(Nc2nccc(-c3cn(C)c4ccccc34)n2)c(OC)cc1N(C)CCN(C)C [OSIMERTINIB] | > 30 µM (inactive) | > 30 µM (inactive) | > 30 µM (inactive) | > 30 µM (inactive) | > 30 µM (inactive) | > 30 µM (inactive) | > 30 µM (inactive) | > 30 µM (inactive) |
| CC(C)CC(=O)Nc1[nH]nc2c1CN(C(=O)C1CCN(C)CC1)C2(C)C [PHA-793887] | > 30 µM (inactive) | > 30 µM (inactive) | > 30 µM (inactive) | > 30 µM (inactive) | 0.003 µM | > 30 µM (inactive) | > 30 µM (inactive) | > 30 µM (inactive) |
| COCCN1CCN(Cc2ccc(-c3n[nH]c4c3C(=O)c3c(NC(=O)NN5CCOCC5)cccc3-4)cc2)CC1 [RGB-286638] | > 30 µM (inactive) | > 30 µM (inactive) | > 30 µM (inactive) | > 30 µM (inactive) | > 30 µM (inactive) | > 30 µM (inactive) | > 30 µM (inactive) | 1.11 µM (active) |
